In patent US9562035B2, “Benzamide derivative useful as FASN inhibitors for the treatment of cancer” (Janssen Pharmaceutica NV, priority 2013, dated 2017):

What was measured:
Type in all cases: cell-based
rgRSV224 virus = test: Antiviral Activity Against RSV (GFP expression in HeLa cells); conditions: human respiratory syncytial virus, 72 h, read-out: EC50 (RSV Antiviral Activity)
Protocol: Black 96-well clear-bottom microtiter plates (Corning, Amsterdam, The Netherlands) were filled in duplicate using a customized robot system with serial 4-fold dilutions of test compound in a final volume of 50 μl culture medium [RPMI medium without phenol red, 10% FBS, 0.04% gentamycin (50 mg/mL) and 0.5% DMSO]. Then, 100 μl of a HeLa cell suspension (5×10^4 cells/mL) in culture medium was added to each well followed by the addition of 50 μl rgRSV224 (MOI=0.02) virus in culture medium using a multidrop dispenser (Thermo Scientific, Erembodegem, Belgium). rgRSV224 virus is an engineered virus that includes an additional GFP gene (HALLAK, L. K., et. al., “Glycosaminoglycan sulfation requirements for respiratory syncytial virus infection.” J. Virol., 2000, pp 10508-10513, Vol. […]). Medium, virus- and mock-infected controls were included in each test. Cells were incubated at 37° C. in a 5% CO2 atmosphere. Three days post-virus exposure, viral replication was quantified by measuring GFP expression in the cells by a MSM laser microscope (Tibotec, Beerse, Belgium). […] In parallel, test compounds were incubated for three days in a set of white 96-well microtitier plates (Corning) and the cytotoxicity of compounds in HeLa cells was determined by measuring the ATP content of the cells using the ATPlite kit (PerkinElmer, Zaventem, Belgium) according to the manufacturer's instructions. […]

[1] = test system: HCV 1b bicistronic subgenomic luciferase reporter replicon clone ET; test: Antiviral Activity Against HCV (replicon cells, luciferase read-out); conditions: Hepatitis C virus, 72 h; HCV 1b replicon clone ET, 3-day incubation, firefly luciferase read-out
Protocol: The anti-HCV activity of compounds was tested in cell culture with replicon cells generated using reagents from the Bartenschlager laboratory (the HCV 1b bicistronic subgenomic luciferase reporter replicon clone ET). The protocol included a 3-day incubation of 2500 replicon cells in a 384-well format in a nine-point 1:4 dilution series of the compound. Dose response curves were generated based on the firefly luciferase read-out.

HBV = test: Antiviral Activity Against HBV Replication (HBV DNA, HepG2.117 cell line); conditions: Hepatitis B virus, 72 h; HepG2.117 cells, 3 days, HBV DNA by realtime PCR
Protocol: (§1) The anti-HBV activity was measured using the HepG2.117 cell line, a stable, inducibly HBV producing cell line (SUN D., et al., “Stable HepG2- and Huh7-based human hepatoma cell lines for efficient regulated expression of infectious hepatitis B virus”, J. of Hepatology, 2006, pp 636-645, Vol. 45) which replicates HBV in the absence of doxycycline (Tet-off system). For the antiviral assay, HBV replication was induced, followed by a treatment with serially diluted compound in 96-well plates in duplicate. After 3 days of treatment, the antiviral activity was determined by quantification of intracellular or extracellular HBV DNA using realtime PCR and an HBV specific primer set and probe. Cytotoxicity of the test compounds was tested using HepG2 cells, incubated for 4 days in the presence of test compounds. The viability of the cells was assessed using a Resazurin assay. The CC50 was defined as the 50% concentration for cytotoxicity

[2] = Cytotoxicity in HepG2 cells (Resazurin assay); conditions: human, read-out: CC50 (Toxicity HepG2-4d)
Protocol: as §1

Cc1ccc(C(=O)N2CCC(c3ccc(-c4cnn(C)c4)cc3)CC2)cc1NC(=O)c1ccc(NC(C)C)nc1 [Compound #32, 6-(isopropylamino)-N-(2-methyl-5-(4-(4-(1-methyl-1H-pyrazol-4-yl)phenyl)piperidine-1-carbonyl)phenyl)nicotinamide]
EC50 (rgRSV224 virus): 0.0177 µM | EC50 [1]: 0.0146 µM | EC50 (HBV): > 5 µM | CC50 at 4 days [2]: > 25 µM
